Measured values taken from patent US9399626B2, “2-thiopyrimidinones” (Pfizer Inc., priority 2011, dated 2016).
Structures can show the parent of a compound that is named as a salt.

Biological target: T1, MPO (purified from human polynuclear leukocytes) (Homo sapiens, UniProt P05164)
T1 construct: purified from human polynuclear leukocytes; purchased Calbiochem/EMD Biosciences; host or cells: human polynuclear leukocytes (natural source)
Assay: MPO Amplex Red Activity Assay
Assay type: biochemical
Conditions: Table 1, 2 μM H2O2, pH 7.4
Experimental: MPO Amplex Red Activity Assay.
MPO peroxidase activity was measured by monitoring the formation of resorufin generated from the oxidation of Amplex Red (10-Acetyl-3,7-dihydroxyphenoxazine) (Invitrogen, Carlsbad, Calif.) by MPO (Gomes, Fernandes et al. 2005). Assay mixtures (100 μL total volume) contained 50 mM NaPi pH 7.4, 150 mM NaCl, 1 mM DTPA (diethylenetriaminepentaacetic acid), 2% DMSO, 2 μM H2O2, 30 μM Amplex Red and the reaction was initiated by the addition of […] (purified from human polynuclear leukocytes and purchased from Calbiochem/EMD Biosciences, Gibbstown, N.J.). All assays were performed in 96-well, half-area, black, nonbinding surface, polystyrene plates (Corning) and the production of resorufin (excitation 530 nm, emission 580 nm) was monitored every 20 sec on a Spectramax M2 Microplate Spectrophotometer (Molecular Devices, Palo Alto, Calif.) equipped with Softmax Pro software (Molecular Devices, Palo Alto, Calif.). Reactions to determine the background reaction rate consisted of all assay components and 4 μL of 500 unit/mL bovine catalase (Sigma) in 50 mM KPi pH 7.0. The background rate was subtracted from each reaction progress curve. All data was analyzed using non-linear regression analysis in Microsoft Excel and Kaleidagraph (Synergy Software).
To determine inhibitor potency (kinact/KI) against MPO, the first 600 sec of the reaction progress curves were fit to equation 1, where Vo is the initial rate in RFU/sec and t is time in seconds, to obtain the first order rate constant for enzyme inactivation (kobs) at each inhibitor concentration.
[formula] Equation 1 is a variation of the standard equation for slow binding inhibition where the steady state velocity (Vs) is set to zero. Each kobs value was corrected for auto-inactivation of the enzyme by subtracting the kobs value for the uninhibited reaction. The corrected kobs values were then plotted versus inhibitor concentration ([I]) and fit to equation 2
[formula] where kinact is the maximal rate of inactivation and KI is the inhibitor concentration that yields half the rate of maximal inactivation (Copeland 2005).
Table 1 and (1A) below provides the myeloperoxidase inhibitory activity for the Examples below in accordance with the above-described assay.

T1 sequence (P05164 279-745 limits assumed): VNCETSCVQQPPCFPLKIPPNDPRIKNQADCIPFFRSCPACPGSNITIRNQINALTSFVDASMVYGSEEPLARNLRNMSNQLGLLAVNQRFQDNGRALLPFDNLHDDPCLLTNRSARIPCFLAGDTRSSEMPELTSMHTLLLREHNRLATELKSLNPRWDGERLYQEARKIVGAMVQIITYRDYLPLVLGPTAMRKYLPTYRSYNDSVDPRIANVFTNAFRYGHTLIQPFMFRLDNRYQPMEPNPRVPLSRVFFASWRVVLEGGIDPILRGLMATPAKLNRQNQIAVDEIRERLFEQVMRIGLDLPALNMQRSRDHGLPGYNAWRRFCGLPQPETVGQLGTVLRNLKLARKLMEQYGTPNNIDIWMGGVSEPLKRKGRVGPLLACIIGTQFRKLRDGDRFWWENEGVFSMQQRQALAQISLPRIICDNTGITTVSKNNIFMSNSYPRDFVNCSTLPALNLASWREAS
T1 sequence (P05164 165-273 limits assumed): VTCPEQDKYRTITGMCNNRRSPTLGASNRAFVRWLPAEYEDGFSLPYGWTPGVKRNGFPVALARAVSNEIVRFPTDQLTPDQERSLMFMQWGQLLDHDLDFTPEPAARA

Row | SMILES | MPO kinact/Ki
1 | COc1ccc(Cl)cc1-c1cc(=O)[nH]c(=S)n1CCN [Example 63, 1-(2-aminoethyl)-6-(5-chloro-2-methoxyphenyl)-2-thioxo-2,3-dihydropyrimidin-4(1H)-one hydrochloride] | 12200 1/s per M
2 | COc1ccc(Cl)cc1-c1cc(=O)[nH]c(=S)n1CCO [Example 64, 6-(5-chloro-2-methoxyphenyl)-1-(2-hydroxyethyl)-2-thioxo-2,3-dihydropyrimidin-4(1H)-one] | 22500 1/s per M
3 | COc1ncc(Cl)cc1-c1cc(=O)[nH]c(=S)n1CCO [Example 65, 6-(5-chloro-2-methoxypyridin-3-yl)-1-(2-hydroxyethyl)-2-thioxo-2,3-dihydropyrimidin-4(1H)-one] | 7940 1/s per M
4 | COCCn1c(-c2cc3ccccc3n2C)cc(=O)[nH]c1=S [Example 66, 1-(2-methoxyethyl)-6-(1-methyl-1H-indol-2-yl)-2-thioxo-2,3-dihydropyrimidin-4(1H)-one] | 1580 1/s per M
5 | COCCn1c(-c2cn(C)c3ccccc23)cc(=O)[nH]c1=S [Example 67, 1-(2-methoxyethyl)-6-(1-methyl-1H-indol-3-yl)-2-thioxo-2,3-dihydropyrimidin-4(1H)-one] | 7520 1/s per M
6 | NC(=O)Cn1c(-c2csc3ccccc23)cc(=O)[nH]c1=S [Example 68, 2-[6-(1-benzothien-3-yl)-4-oxo-2-thioxo-3,4-dihydropyrimidin-1(2H)-yl]acetamide] | 1160 1/s per M
7 | NC(=O)Cn1c(-c2cc3ccccc3s2)cc(=O)[nH]c1=S [Example 69, 2-[6-(1-benzothien-2-yl)-4-oxo-2-thioxo-3,4-dihydropyrimidin-1(2H)-yl]acetamide] | 4250 1/s per M
8 | COCCn1c(-c2ccc(C#N)cc2OC)cc(=O)[nH]c1=S [Example 70, 3-methoxy-4-[3-(2-methoxyethyl)-6-oxo-2-thioxo-1,2,3,6-tetrahydro-pyrimidin-4-yl]benzonitrile] | 1590 1/s per M
9 | NCCCn1c(-c2cc3ccccc3s2)cc(=O)[nH]c1=S [Example 71, 1-(3-aminopropyl)-6-(1-benzothien-2-yl)-2-thioxo-2,3-dihydropyrimidin-4(1H)-one hydrochloride] | 3570 1/s per M
10 | NCCCn1c(-c2cccc3ncsc23)cc(=O)[nH]c1=S [Example 72, 1-(3-aminopropyl)-6-(1,3-benzothiazol-7-yl)-2-thioxo-2,3-dihydropyrimidin-4(1H)-one trifluoroacetate] | 3580 1/s per M
11 | COCCn1c(-c2cccc3ccsc23)cc(=O)[nH]c1=S [Example 73, 6-(1-benzothien-7-yl)-1-(2-methoxyethyl)-2-thioxo-2,3-dihydropyrimidin-4(1H)-one] | 9870 1/s per M
12 | COCCn1c(-c2cccc3sccc23)cc(=O)[nH]c1=S [Example 74, 6-(1-benzothien-4-yl)-1-(2-methoxyethyl)-2-thioxo-2,3-dihydropyrimidin-4(1H)-one] | 14400 1/s per M
13 | COCCn1c(-c2nc3ccccc3s2)cc(=O)[nH]c1=S [Example 75, 6-(1,3-benzothiazol-2-yl)-1-(2-methoxyethyl)-2-thioxo-2,3-dihydropyrimidin-4(1H)-one] | 2040 1/s per M
14 | NCCCn1c(-c2ccc3c(c2)OCCO3)cc(=O)[nH]c1=S [Example 76, 1-(3-aminopropyl)-6-(2,3-dihydro-1,4-benzodioxin-6-yl)-2-thioxo-2,3-dihydropyrimidin-4(1H)-one hydrochloride] | 4190 1/s per M
15 | COc1ccccc1-c1cc(=O)[nH]c(=S)n1CCN=C(N)N [Example 77, 2-{2-[6-(2-methoxyphenyl)-4-oxo-2-thioxo-3,4-dihydropyrimidin-1(2H)-yl]ethyl}guanidine hydrochloride] | 6660 1/s per M
16 | COCCn1c(-c2cccc3ncsc23)cc(=O)[nH]c1=S [Example 78, 6-(1,3-benzothiazol-7-yl)-1-(2-methoxyethyl)-2-thioxo-2,3-dihydropyrimidin-4(1H)-one] | 9730 1/s per M
17 | Cl.NCCCOc1ccccc1-c1cc(=O)[nH]c(=S)n1CCN [Example 79, 1-(2-aminoethyl)-6-[2-(3-aminopropoxy)phenyl]-2-thioxo-2,3-dihydropyrimidin-4(1H)-one hydrochloride] | 1580 1/s per M
18 | COCCn1c(-c2cccc3c2OCCO3)cc(=O)[nH]c1=S [Example 80, 6-(2,3-dihydro-1,4-benzodioxin-5-yl)-1-(2-methoxyethyl)-2-thioxo-2,3-dihydropyrimidin-4(1H)-one] | 4130 1/s per M
19 | COc1cc(OC)c(-c2cc(=O)[nH]c(=S)n2CCN)cc1C [Example 81, 1-(2-aminoethyl)-6-(2,4-dimethoxy-5-methylphenyl)-2-thioxo-2,3-dihydropyrimidin-4(1H)-one hydrochloride] | 24300 1/s per M
20 | COc1ccc(-c2cc(=O)[nH]c(=S)n2CCCN)cc1OC [Example 82, 1-(3-aminopropyl)-6-(3,4-dimethoxyphenyl)-2-thioxo-2,3-dihydropyrimidin-4(1H)-one hydrochloride] | 3390 1/s per M
21 | COc1ccc(-c2cc(=O)[nH]c(=S)n2CC(N)=O)cc1OC [Example 83, 2-[6-(3,4-dimethoxyphenyl)-4-oxo-2-thioxo-3,4-dihydropyrimidin-1(2H)-yl]acetamide] | 3510 1/s per M
22 | COc1cc(-c2cc(=O)[nH]c(=S)n2CCN)c(OC)cc1C [Example 84, 1-(2-aminoethyl)-6-(2,5-dimethoxy-4-methylphenyl)-2-thioxo-2,3-dihydropyrimidin-4(1H)-one hydrochloride] | 6630 1/s per M
23 | COc1cc(OC)cc(-c2cc(=O)[nH]c(=S)n2CCCN)c1 [Example 85, 1-(3-aminopropyl)-6-(3,5-dimethoxyphenyl)-2-thioxo-2,3-dihydropyrimidin-4(1H)-one hydrochloride] | 10700 1/s per M
24 | COc1cc(OC)cc(-c2cc(=O)[nH]c(=S)n2CC(N)=O)c1 [Example 86, 2-[6-(3,5-dimethoxyphenyl)-4-oxo-2-thioxo-3,4-dihydropyrimidin-1(2H)-yl]acetamide] | 3960 1/s per M
25 | COc1ccc(OC)c(-c2cc(=O)[nH]c(=S)n2CCCN)c1 [Example 87, 1-(3-aminopropyl)-6-(2,5-dimethoxyphenyl)-2-thioxo-2,3-dihydropyrimidin-4(1H)-one hydrochloride] | 15400 1/s per M
26 | NCCCn1c(-c2ccccc2OCCO)cc(=O)[nH]c1=S [Example 88, 1-(3-aminopropyl)-6-[2-(2-hydroxyethoxy)phenyl]-2-thioxo-2,3-dihydropyrimidin-4(1H)-one hydrochloride] | 898 1/s per M
27 | COc1ccc(-c2cc(=O)[nH]c(=S)n2CC(=O)O)c(OC)c1 [Example 89, [6-(2,4-dimethoxyphenyl)-4-oxo-2-thioxo-3,4-dihydropyrimidin-1(2H)-yl]acetic acid] | 276 1/s per M
28 | COc1cc(OC)c(-c2cc(=O)[nH]c(=S)n2CCN)cc1F [Example 90, 1-(2-aminoethyl)-6-(5-fluoro-2,4-dimethoxyphenyl)-2-thioxo-2,3-dihydropyrimidin-4(1H)-one hydrochloride] | 11600 1/s per M
